Reference: paper PMC3556473, “Absorption, metabolism and excretion of [^14C]pomalidomide in humans following oral administration” (Cancer Chemotherapy and Pharmacology, 2012)
“And” between values parts separate entries of the source, which are not always exact repeats. Equal values may be shown once. Read-outs that look alike come from different tables or passages of the source.

Key:
[1] = Plasma pharmacokinetics of pomalidomide and circulating metabolites by radiochromatography (metabolite profiling); type: in vivo, human; design: key to Plasma (% AUC relative to TRA): ND: not detected; D: detected by MS, but at concentrations too low to accurately quantify by radiochromatography; AUC0–24 / AUC0−∞: concentration or dose not given beside the values; conditions: for Plasma (% AUC relative to TRA): AUC0–24 (unchanged drug or metabolite)/AUC0–24 (TRA) * 100 %; for AUC/AUCTRA: plasma exposure relative to total radioactivity; for AUC0–24 / AUC0−∞ / C max / t ½ / T max: plasma, radiochromatography; for AUC0–24 / AUC0−∞ / C max / t ½: geometric mean (%CV); for T max: median and range
Description: Individual plasma samples collected from all subjects at 1, 2.5, 4, 6, 10, 12 and 24 h post-dose were analyzed for metabolite profiling. Samples were extracted with acetonitrile, the supernatant was removed, and the pellet was washed with 0.1 % formic acid in water and extracted again with acetonitrile. The combined supernatants were adjusted to 15 or 25 mL by adding acetonitrile then evaporated to dryness under a stream of nitrogen. The residues were re-suspended in 0.1 % formic acid in water, assayed for extraction recovery and analyzed for metabolite profiling. A control plasma sample spiked with [^14C]pomalidomide was extracted in a similar manner to determine the extraction efficiency and stability of [^14C]pomalidomide.
(§1) HPLC analysis for metabolite profiling (HPLC Method 1) was performed using a Waters 2695 Alliance Separation Module (Waters Corp., Milford, MA) with the autosampler set to 4 °C. [^14C]Pomalidomide and metabolites were separated using an ACE C18 column (150 × 4.6 mm, 3 μm; Advanced Chromatography Technologies, Aberdeen, Scotland) equipped with an ACE C18 guard column (10 × 3 mm, 3 μm). The mobile phases used were 25 mM ammonium acetate in water: pH 5.5 with formic acid (mobile phase A) and methanol (mobile phase B). The column temperature was 30 °C, and the flow rate was 0.7 mL/min. The linear gradient was delivered as follows: 0–2 min 100 % A; 2–38 min to 64 % A; 38–44 min to 0 % A; 44–48 min hold at 0 % A; return to initial conditions over 2 min.
(§2) Radioactivity profiles for plasma and excreta were determined by collecting the column eluate into 96-well Deepwell LumaPlates™ at a rate of 0.25 min/fraction. The plates were dried and the radioactivity in each well determined using a PerkinElmer TopCount® NXT™ Microplate Scintillation Counter. HPLC radiochromatograms were reconstructed using LC-ARC data handling software.
For pomalidomide and metabolite concentrations in plasma based on metabolite profiling data, pharmacokinetic data were generated by non-compartmental analysis of plasma versus time profiles using WinNonlin (version 4.1, Enterprise Edition).

[2] = Metabolite profiling of urine and feces (% of dose excreted); type: in vivo, human; design: key to % of dose excreted, Feces / % of dose excreted, Urine: ND: not detected; D: detected by MS, but at concentrations too low to accurately quantify by radiochromatography; conditions: radiochromatography; for % of dose excreted, Urine: pooled urine 0–72 h
Description: For each subject, urine samples were pooled using an equal percentage by volume of the 0–6, 6–12, 12–24, 24–48 and 48–72 h samples. Pools of the 0–6, 6–12, 12–24, 24–48 and 48-72 h collections were also prepared across subjects and analyzed for metabolite profiling. Samples were mixed and centrifuged prior to the supernatants being transferred to fresh tubes for metabolite profiling analysis.
For each subject, fecal homogenates for metabolite profiling were pooled using an equal percentage by weight of the 0–24, 24–48, 48–72 and 72–96 h samples. Pools of the 0–24, 24-48, 48–72 and 72–96 h collections were also prepared across subjects and analyzed for metabolite profiling. An aliquot of each pool was extracted with acetonitrile; samples were mixed and centrifuged. The supernatant was removed and the pellets re-suspended with 0.1 % formic acid and extracted with acetonitrile. The combined supernatants were evaporated to dryness under a stream of nitrogen and the residue re-suspended in methanol:0.1 % formic acid in water (1:1). Samples were assayed for extraction recovery prior to metabolite profiling. A control fecal homogenate spiked with [^14C]pomalidomide was extracted in a similar manner to determine the extraction efficiency and stability of [^14C]pomalidomide.
as §1, §2

[3] = tested on: H929 MM cell; assay: Inhibition of MM cell proliferation ([3H]-thymidine incorporation, 3-day culture); type: cell-based; conditions: Homo sapiens, NCI-H929
Description: (§3) Metabolites and hydrolysis products of pomalidomide were tested for pharmacological activity in the following three assay systems: (1) inhibition of MM cell proliferation, (2) enhancement of primary human T cell IL-2 production and (3) inhibition of TNF-α production by lipopolysaccharide (LPS)-stimulated human peripheral blood mononuclear cells (PBMC). For all three assay types, compounds were dissolved in 100 % dimethyl sulfoxide (DMSO) and diluted into complete cell culture medium, consisting of Roswell Park Memorial Institute (RPMI)-1640 plus penicillin, streptomycin and L-glutamine (Mediatech, Manassas, VA). The MM cell proliferation cell culture medium contained 10 % fetal bovine serum, while the primary human cell cultures contained 10 % human AB serum (Invitrogen, Brown Deer, WI). The final DMSO concentration in the cell culture media was 0.25 %.
(§4) The human MM cell line OPM-2 was obtained from DSMZ (Braunschweig, Germany), and human MM cell lines U266 B1 and NCI-H929 were obtained from ATCC (Manassas, VA). Inhibition of MM cell proliferation was assessed by the [^3H]-thymidine incorporation assay in a 3-day culture in the presence of compounds in complete medium, as previously described. Primary human T cells were isolated from PBMC by negative selection using the RosetteSep T Cell Enrichment Cocktail (STEMCELL Technologies, Tukwila, WA) according to the manufacturer’s procedures. Costimulation of T cell IL-2 production was measured in a 2-day culture of primary human T cells isolated from healthy donors stimulated with anti-CD3 antibody in the presence of compounds, as previously described. Inhibition of TNF-α production by LPS-stimulated human PBMC was measured in a 1-day culture in the presence of compound, as previously described.

[4] = tested on: OPM-2 MM cell; assay: as above; type: cell-based; conditions: Homo sapiens
Description: as §3, §4

[5] = tested on: U266 MM cell; assay: as above; type: cell-based; conditions: Homo sapiens, U-266
Description: as §3, §4

[6] = tested on: T cell IL-2 production; assay: Enhancement of primary human T cell IL-2 production (anti-CD3 stimulated, 2-day culture); type: cell-based; conditions: 48 h, anti-CD3 stimulated primary human T cells
Description: as §3, §4

[7] = tested on: PBMC TNF-α production; assay: Inhibition of TNF-α production by LPS-stimulated human PBMC (1-day culture); type: cell-based; conditions: 24 h
Description: as §3, §4

[8] = thalidomide, cited from earlier work

| Plasma (% AUC relative to TRA) [1] | AUC/AUCTRA [1] | AUC0–24 [1] | AUC0−∞ [1] | C max [1] | t ½ [1] | T max [1] | % of dose excreted, Urine [2] | % of dose excreted, Feces ([2]; pooled feces 0–96 h) | IC50 [3] | IC50 [5] | EC50 [6] | Structure (SMILES) | IC50 [4] | IC50 [7] | Percent dose excreted in human urine, Hydrolysis products [8] | Percent dose excreted in human urine, Metabolites (oxidative and conjugative) [8] | Percent dose excreted in human urine, Parent [8] | Percent dose excreted in human urine, Total [8] | Percent dose excreted in human urine, Total ([8]; listed as thalidomide) |
| --- | --- | --- | --- | --- | --- | --- | --- | --- | --- | --- | --- | --- | --- | --- | --- | --- | --- | --- | --- |
| 4.6% | 4.59% | 8.90 (20.9) ngEq*h/mL | 10.1 (30.2) ngEq*h/mL | 0.664 (23.5) ngEq/mL | 9.06 (18.7) h | 2.5 (1.0–6.0) h | 17% and 17.1% |  |  |  |  | Nc1c(O[C@@H]2O[C@H](C(=O)O)[C@@H](O)[C@H](O)[C@H]2O)ccc2c1C(=O)N(C1CCC(=O)NC1=O)C2=O (stereo partly drawn) [Metabolite M12] |  |  |  |  |  |  |  |
| 2.0% | 1.99% | 3.86 (54.0) ngEq*h/mL | 5.99 (48.9) ngEq*h/mL | 0.362 (31.7) ngEq/mL | 9.97 (43.6) h | 3.25 (1.0–6.0) h | 12% and 12.4% |  |  |  |  | Nc1c(O[C@@H]2O[C@H](C(=O)O)[C@@H](O)[C@H](O)[C@H]2O)ccc2c1C(=O)N(C1CCC(=O)NC1=O)C2=O (stereo partly drawn) [Metabolite M13] |  |  |  |  |  |  |  |
| D |  |  |  |  |  |  | 0.1% | D | > 1 µM | > 1 µM | > 10 µM | CC(=O)Nc1cccc2c1C(=O)N(C1CCC(=O)NC1=O)C2=O (stereo not drawn) [Metabolite M18, N-acetyl pomalidomide] | > 1 µM | > 10 µM |  |  |  |  |  |

Further lines, the compound ahead of its results:

| Structure (SMILES) | Plasma (% AUC relative to TRA) [1] | AUC/AUCTRA [1] | AUC0–24 [1] | AUC0−∞ [1] | C max [1] | t ½ [1] | T max [1] | % of dose excreted, Urine [2] | % of dose excreted, Feces ([2]; pooled feces 0–96 h) | IC50 [3] | IC50 [5] | EC50 [6] | IC50 [4] | IC50 [7] | Percent dose excreted in human urine, Hydrolysis products [8] | Percent dose excreted in human urine, Metabolites (oxidative and conjugative) [8] | Percent dose excreted in human urine, Parent [8] | Percent dose excreted in human urine, Total [8] | Percent dose excreted in human urine, Total ([8]; listed as thalidomide) |
| --- | --- | --- | --- | --- | --- | --- | --- | --- | --- | --- | --- | --- | --- | --- | --- | --- | --- | --- | --- |
| Nc1cccc2c1C(=O)N(C1CC(O)C(=O)NC1=O)C2=O (stereo not drawn) [Metabolite M19] | D |  |  |  |  |  |  | D |  | > 1 µM | > 1 µM | 1.5 µM | > 1 µM | 2.3 µM |  |  |  |  |  |
| O=C1CCC(N2C(=O)c3ccccc3C2=O)C(=O)N1 (stereo not drawn) [Thalidomide, thalidomide] |  |  |  |  |  |  |  |  |  |  |  |  |  |  | 87.2% | Trace | 1.8% | 91.9% | > 90% |
